Assays:
Type in all cases: cell-based
OPRK1 [1] = experiment: Level of expression of OPRK1 by immunoblotting in A549 lung cancer cells; conditions: 1 nM to 10 μM, 48 h, immunoblotting (FIG. 1)
Procedure: (§1) In order to determine the effect of 6-β-naltrexol or naltrexone on the level of expression of OPRK1, A549 lung cancer or HCT116 colon cancer cells were seeded onto 6-well plates at a density of 2×10^5 cell/well, and allowed to adhere overnight. Cells were then cultured in the presence of naltrexone or 6-β-naltrexol at concentrations of 1 nM, 10 nM, 100 nM, 1 μM or 10 μM for a further 48 h. Cells were then harvested and processed for measurements of OPRK1, opioid receptor-μ1 (OPRM1) and GAPDH using standard immunoblotting techniques. The effect of 6-β-naltrexol or naltrexone on the level of expression of BAD was investigated by using the same protocol as outlined above. The effect was determined in HCT116 cells using either 10 nM or 10 μM of 6-β-naltrexol or 10 nM or 10 μM naltrexone (FIG. 2).

OPRK1 [2] = experiment: Level of expression of OPRK1 by immunoblotting in HCT116 colon cancer cells; conditions: 1 nM to 10 μM, 48 h, immunoblotting (FIG. 1)
Procedure: as §1

BAD = experiment: Level of expression of BAD by immunoblotting in HCT116 cells; conditions: 48 h (FIG. 2)
Procedure: as §1

A549 and HCT116 cells = experiment: Two-phase priming with 6-β-naltrexol then chemotherapy agent; cell number and viability by trypan blue cell counting
Procedure: The impact of combining 6-β-naltrexol with other chemotherapeutic agents was tested by culturing cells according to a treatment schedule that involved two phases of treatment. The first phase involved priming with 10 nM 6-β-naltrexol or 10 μM 6-β-naltrexol for 48 h, before treatment with another drug for a further 48 h. A549 and HCT116 cells were seeded into 6-well plates at a density of 2×10^5 cells/well and left to adhere overnight. Media was removed after 48 h, and cells were rinsed gently with drug-free medium. Fresh culture medium that contained cyclophosphamide (CPM), gemcitabine (GEM) or oxaliplatin (OXP) was then added to the cells. The concentrations of the chemotherapy agents used were approximately ¼ IC50, as established previously (Liu W M, Fowler D W, Smith P, Dalgleish A G. Pre-treatment with chemotherapy can enhance the antigenicity and immunogenicity of tumours by promoting adaptive immune responses. Br J Cancer. 2010 Jan. 5; 102(1):115-23). Cells were then left for a further 48 h before assessment of cell number of viability by cell counting using trypan blue dye as a way of discriminating live and dead cells. Cytostasis was indicated by a reduction in cell number and no associated reduction in cell viability.

**Q.** How did the “level of expression of OPRK1” value (OPRK1 [1]) turn out when Oc1ccc2c3c1OC1[C@H](O)CC[C@@]4(O)[C@@H](C2)N(CC2CC2)CC[C@]314 (stereo partly drawn) [6-β-naltrexol, 17-(Cyclopropylmethyl)-4,5-epoxymorphinan-3,6beta, 14-triol] was run?
**A.** increase the level of expression

**Q.** And the “level of expression of OPRK1” value (OPRK1 [2])?
**A.** increases the level of expression

**Q.** What about the “effect on the level of expression of BAD” value (BAD; 10 nM) of the same compound?
**A.** negligible effect

**Q.** What about the “increase of the level of expression of BAD” value (BAD; 10 μM) of the same compound?
**A.** more than 10%

**Q.** And the “independent cytotoxicity of the priming agent” value (A549 and HCT116 cells; higher dose of 6-β-naltrexol alone (double doses control))?
**A.** absence of any independent increase in cytotoxicity

**Q.** What about the “cytotoxic effect of certain anti-cancer agents after priming” value (A549 and HCT116 cells; priming 48 h in an amount sufficient to raise OPRK1 expression by at least 10%, then cyclophosphamide, gemcitabine or oxaliplatin at approximately ¼ IC50 for 48 h) of the same compound?
**A.** increased

**Q.** Which “level of expression of OPRK1” value (OPRK1 [1]) does the source give for O=C1CC[C@@]2(O)[C@H]3Cc4ccc(O)c5c4[C@@]2(CCN3CC2CC2)[C@H]1O5 [naltrexone] here?
**A.** increase the level of expression

**Q.** What about the “level of expression of OPRK1” value (OPRK1 [2]) of the same compound?
**A.** down-regulates the level of expression

**Q.** And the “effect on the level of expression of BAD” value (BAD; 10 nM)?
**A.** negligible effect

**Q.** What about the “effect on the level of expression of BAD” value (BAD; 10 μM) of the same compound?
**A.** negligible effect

Source: patent publication US11885796B2, “Assay to identify anti-cancer agents” (LDN Pharma Limited, priority 2017, dated 2024)
